Read-outs that look alike come from different tables or passages of the source. A value given as a limit tells only on which side of the number the result lay.

The target of series [1] is DNA-PK (Homo sapiens (Human), UniProt P78527). In words: DNA-PK assay (biochemical), flashplate 33P-ATP kinase assay. The procedure, abridged: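 Radiometric kinase reaction in streptavidin-coated flashplates, stopped with 200 mM EDTA, then 30 min room-temperature incubation and saline washes.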
Series [2] concerns the target DNA-PK phosphorylation at serine 2056 (Homo sapiens (Human), UniProt P78527). In words: DNA-PK phosphorylation at serine 2056 (cellular), bleomycin-treated HCT116 cells, ELISA. Type of series: cell-based. The settings on record: read-out: IC50 pDNA-PK. The procedure, abridged:
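Chemiluminescent ELISA quantified DNA-PK Ser2056 phosphorylation relative to total DNA-PKcs in HCT116 cells. Cells received compounds together with 10 μM bleomycin for 6 h; DMSO served as blank.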

Series [3] has as its target Kv11.1 (hERG) (Homo sapiens (Human), UniProt Q12809). In words: Kv11.1 (hERG) ion channel activity (patch clamp assay), HEK293 cells transfected with hERG gene. The settings on record: read-out: Ki [Kv1.11 hERG]. For orientation: hERG is a cardiac potassium channel; its block is linked to QT prolongation.
Where [4] appears, read: cellular, HCT116 cells, 10 μM bleomycin, six hours.
Setting [5] is: patch clamp, HEK293 transfected with hERG gene.
Setting [6] is: cellular DNA-PK phosphorylation at serine 2056, HCT116.
The mark [7] stands for this setting: hERG patch clamp assay (cells without asterisk).

Sequence of Kv11.1 (hERG) (Q12809 whole entry): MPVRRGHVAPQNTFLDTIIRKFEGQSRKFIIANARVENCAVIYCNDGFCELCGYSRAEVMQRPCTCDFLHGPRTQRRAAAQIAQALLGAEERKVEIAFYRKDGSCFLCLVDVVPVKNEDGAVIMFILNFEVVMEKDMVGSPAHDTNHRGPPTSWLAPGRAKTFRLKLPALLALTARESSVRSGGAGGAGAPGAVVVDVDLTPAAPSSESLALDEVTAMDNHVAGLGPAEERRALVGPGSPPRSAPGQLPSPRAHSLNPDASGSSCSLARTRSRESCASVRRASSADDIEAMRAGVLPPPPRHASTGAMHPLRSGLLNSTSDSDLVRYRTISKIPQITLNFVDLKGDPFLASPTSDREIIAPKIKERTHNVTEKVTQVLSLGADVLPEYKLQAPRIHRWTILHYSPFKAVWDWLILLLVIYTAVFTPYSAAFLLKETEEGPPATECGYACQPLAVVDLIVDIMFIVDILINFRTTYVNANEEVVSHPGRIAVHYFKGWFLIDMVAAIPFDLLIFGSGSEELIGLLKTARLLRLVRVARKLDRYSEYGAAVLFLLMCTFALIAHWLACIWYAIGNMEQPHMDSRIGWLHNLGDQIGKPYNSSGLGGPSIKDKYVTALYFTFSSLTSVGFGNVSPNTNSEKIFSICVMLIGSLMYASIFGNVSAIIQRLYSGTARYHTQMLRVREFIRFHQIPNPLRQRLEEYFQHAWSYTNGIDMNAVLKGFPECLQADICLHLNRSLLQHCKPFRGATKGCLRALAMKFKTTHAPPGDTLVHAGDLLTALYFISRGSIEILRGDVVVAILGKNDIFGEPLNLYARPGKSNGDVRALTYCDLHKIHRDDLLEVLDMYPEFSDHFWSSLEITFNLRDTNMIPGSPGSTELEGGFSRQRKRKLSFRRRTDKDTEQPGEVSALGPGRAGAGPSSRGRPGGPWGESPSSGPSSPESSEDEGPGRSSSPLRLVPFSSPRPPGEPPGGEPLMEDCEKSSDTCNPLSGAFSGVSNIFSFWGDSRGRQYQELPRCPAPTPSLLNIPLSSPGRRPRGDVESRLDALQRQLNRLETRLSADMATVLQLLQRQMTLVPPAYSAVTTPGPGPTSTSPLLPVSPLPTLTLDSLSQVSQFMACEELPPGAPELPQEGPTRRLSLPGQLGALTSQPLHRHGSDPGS

Turning to `CCn1nc(C(O)c2cc(-c3ncnc4cc(N5CCOCC5)ccc34)c(F)cc2Cl)ccc1=O` (stereo not drawn) [Example 97, 6-{[2-Chloro-4-fluoro-5-(7-morphohn-4-yl-quinazolin-4-yl)phenyl]-hydroxymethyl}-2-ethyl-2H-pyridazin-3-one], the concentration for half-maximal inhibition (IC50) (usually the midpoint of a concentration-inhibition curve) in series [1] (enzymatic, 5 μM ATP) is below 3 nM; in series [2] (setting [4]), 500 to 5000 nM. In addition, the Ki (usually a dissociation constant, usually derived from enzyme kinetics or from competition with a known ligand) in series [3] (setting [5]) is above 25000 nM.

For the compound `NC(=O)C(c1cccnc1)c1cc(-c2ncnc3cc(N4CCOCC4)ccc23)c(F)cc1F` (stereo not drawn) [Example 294, 2-[2,4-Difluoro-5-(7-morpholin-4-yl-quinazolin-4-yl)-phenyl]-2-pyridin-3-ylacetamide], the IC50 in series [1] (biochemical DNA-PK assay) lay in the range of 3 to 7 nM; in series [2] (setting [6]), 10000 to 30000 nM. In addition, the Ki in series [3] (setting [7]) is above 25000 nM.

For `OC(c1ccc(F)c(-c2ncnc3cc(N4CCOCC4)ccc23)c1)c1ncccc1C(F)(F)F` (stereo not drawn) [Example 80, [4-Fluoro-3-(7-morpholin-4-yl-quinazolin-4-yl)-phenyl]-(3-trifluoro-methylpyridin-2-yl)-methanol], the IC50 in series [1] (enzymatic, 5 μM ATP) lay in the range of 3 to 7 nM; in series [2] (setting [4]), 500 to 5000 nM. Also, the Ki in series [3] (setting [5]) is above 25000 nM.

In the case of `COC(=O)c1ccc(C(O)c2cc(-c3ncnc4cc(N5CCOCC5)ccc34)c(F)cc2Cl)nn1` (stereo not drawn) [Example 58, 6-{[2-Chloro-4-fluoro-5-(7-morpholin-4-yl-quinazolin-4-yl)phenyl]-hydroxymethyl}-pyridazine-3-carboxylic acid methyl ester], the IC50 in series [1] (enzymatic, 5 μM ATP) was 3 to 7 nM; in series [2] (setting [4]), 5000 to 10000 nM. For the same compound, the Ki in series [3] (setting [5]) was above 25000 nM.

Turning to `CNC(=O)c1ccc(C(O)c2cc(-c3ncnc4cc(N5CCOCC5)ccc34)c(F)cc2Cl)nn1` (stereo not drawn) [Example 43, 6-{[2-Chloro-4-fluoro-5-(7-morpholin-4-yl-quinazolin-4-yl)phenyl]-hydroxymethyl}-pyridazine-3-carboxylic acid methylamide], the concentration for half-maximal inhibition (IC50) was 3 to 7 nM in series [1] (enzymatic, 5 μM ATP) and 500 to 5000 nM in series [2] (setting [4]). For the same compound, the inhibition constant Ki in series [3] (setting [5]) was above 25000 nM.

Consider `OC(c1cc(-c2ncnc3cc(N4CCOCC4)ccc23)c(F)cc1F)c1ncnc2sccc12` (stereo not drawn) [Example 90, [2,4-Difluoro-5-(7-morpholin-4-yl-quinazolin-4-yl)-phenyl]thieno[2,3-d}-pyrimidin-4-ylmethanol], for which the IC50 in series [1] (enzymatic, 5 μM ATP) is below 3 nM; in series [2] (setting [4]) it was below 500 nM. In series [3] (setting [5]), the Ki was above 25000 nM.

As for `NC(=O)C(c1cccnn1)c1cc(-c2ncnc3cc(N4CCOCC4)ccc23)c(F)cc1Cl` (stereo not drawn) [Example 300, 2-[2-Chloro-4-fluoro-5-(7-morpholin-4-yl-quinazolin-4-yl)-phenyl]-2-pyridazin-3-ylacetamide], the IC50 in series [1] (biochemical DNA-PK assay) lay within 7 to 30 nM; in series [2] (setting [6]), 10000 to 30000 nM. Further, the Ki in series [3] (setting [7]) was above 25000 nM.

`Cc1cncc(C(O)c2ccc(F)c(-c3ncnc4cc(N5CCOCC5)ccc34)c2)n1` (stereo not drawn) [Example 296, [4-Floro-3-(7-morpholin-4-yl-quinazolin-4-yl)-phenyl]-(6-methyl-pyrazin-2-yl)-methanol]: the IC50 was in the range of 7 to 30 nM in series [1] (biochemical DNA-PK assay) and 5000 to 10000 nM in series [2] (setting [6]). Further, the Ki in series [3] (setting [7]) was above 25000 nM.

With `COc1nccnc1C(O)c1cc(-c2ncnc3cc(N4CCOCC4)ccc23)ccc1F` (stereo not drawn) [Example 394, [2-Fluoro-5-(7-morpholin-4-yl-quinazolin-4-yl)-phenyl]-(3-methoxy-pyrazin-2-yl)-methanol], the IC50 in series [1] (biochemical DNA-PK assay) is 3 to 7 nM; in series [2] (setting [6]), 500 to 5000 nM. Also, the Ki in series [3] (setting [7]) was below 10000 nM.

On to `Cn1cnc2ncnc([C@H](O)c3cc(-c4ncnc5cc(N6CCOCC6)ccc45)c(F)cc3F)c21` [Example 384, (R)-[2,4-Difluoro-5-(7-morpholin-4-yl-quinazolin-4-yl)-phenyl]-(7-methyl-7H-purin-6-yl)-methanol], for which the results for the concentration for half-maximal inhibition (IC50) in series [1] (biochemical DNA-PK assay) and in series [2] (setting [6]) were 7 to 30 nM and 10000 to 30000 nM, respectively. Moreover, the Ki in series [3] (setting [7]) was above 25000 nM.

`OC(c1ccc(F)c(-c2ncnc3cc(N4CCOCC4)ccc23)c1)c1cccnn1` (stereo not drawn) [Example 65, [4-Fluoro-3-(7-morpholin-4-yl-quinazolin-4-yl)phenyl]-pyridazin-3-ylmethanol]: the IC50 in series [1] (enzymatic, 5 μM ATP) was in the range of 7 to 30 nM; in series [2] (setting [4]), 500 to 5000 nM. In addition, the Ki in series [3] (setting [5]) is above 25000 nM.

(Values after US9732094B2, “Arylquinazolines” (Merck Patent GmbH, priority 2013, dated 2017).)
